Test results as given in patent US7045532B2 (Millennium Pharmaceuticals, Inc., priority 1999, dated 2006).
pKi: −log10 of the molar value.

target: T1, ACE-2 (Homo sapiens, UniProt Q9BYF1); assay: ACE-2 Competitive Substrate Assay (ACS Assay); assay type: biochemical; settings: Ki class per key; compounds tested in 5% DMSO, 12 compound concentrations, 25° C.; Ki=Kiapp/(1+[S]/Km); read-out: Human ACE-2 Activity
T1 construct: a stop codon inserted after the serine immediately preceding the transmembrane domain; made in house; host or cells: CHO K1 cells (transient transfection, purified from conditioned medium)
T1 sequence (Q9BYF1 18-740 limits assumed): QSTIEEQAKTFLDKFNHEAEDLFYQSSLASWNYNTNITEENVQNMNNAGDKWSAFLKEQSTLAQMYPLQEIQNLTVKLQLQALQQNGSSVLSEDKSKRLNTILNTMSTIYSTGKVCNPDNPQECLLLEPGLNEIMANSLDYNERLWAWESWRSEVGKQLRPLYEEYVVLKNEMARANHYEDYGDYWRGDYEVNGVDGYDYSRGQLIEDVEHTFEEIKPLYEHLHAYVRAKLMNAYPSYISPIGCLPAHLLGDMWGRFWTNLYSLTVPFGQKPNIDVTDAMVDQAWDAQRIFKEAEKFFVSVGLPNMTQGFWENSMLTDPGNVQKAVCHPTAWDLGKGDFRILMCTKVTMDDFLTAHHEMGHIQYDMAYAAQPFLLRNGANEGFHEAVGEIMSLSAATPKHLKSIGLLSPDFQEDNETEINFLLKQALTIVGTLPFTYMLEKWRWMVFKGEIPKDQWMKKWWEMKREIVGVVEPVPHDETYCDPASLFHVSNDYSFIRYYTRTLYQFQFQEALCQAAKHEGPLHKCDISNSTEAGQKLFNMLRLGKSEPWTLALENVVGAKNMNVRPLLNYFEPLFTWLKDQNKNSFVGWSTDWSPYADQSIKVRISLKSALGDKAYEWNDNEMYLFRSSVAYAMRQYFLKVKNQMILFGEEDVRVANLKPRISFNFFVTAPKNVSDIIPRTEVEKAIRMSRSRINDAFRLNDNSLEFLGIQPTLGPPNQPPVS

Row | pKi | Compound
1 | 6.30 to 7.00 | CC(C)C[C@H](N[C@@H](Cc1cccc(Cc2cccc(Cl)c2)c1)C(=O)O)C(=O)O [PF, 2-[1-Carboxy-2-[3-(3-chloro-benzyl)-phenyl]-ethylamino]-4-methyl-pentanoic acid]
2 | 6.30 to 7.00 | CC(C)C[C@H](N[C@@H](Cc1ccccc1C#N)C(=O)O)C(=O)O [QI, 2-[1-Carboxy-2-(2-cyano-phenyl)-ethylamino]-4-methyl-pentanoic acid]
3 | > 7.00 | CC(C)C[C@H](N[C@@H](C/C=C\c1cc(Cl)cc(Cl)c1)C(=O)O)C(=O)O (stereo in doubt) [PV, 2-(1-Carboxy-3-methyl-butylamino)-5-(3,5-dichloro-phenyl)-pent-4-enoic acid]
4 | 6.30 to 7.00 | CC(C)C[C@H](N[C@@H](Cc1cccc(Cc2cc(Cl)cc(Cl)c2)c1)C(=O)O)C(=O)O [PG, (S,S)-2-{1-Carboxy-2-[3-(3,5-dichloro-benzyl)-phenyl]-ethylamino}-4-methyl-pentanoic acid]
5 | > 7.00 | CC(C)C[C@H](N[C@@H](Cc1ccc(-c2ccc(F)cc2)cc1)C(=O)O)C(=O)O [OY, (S,S)-[1-Carboxy-2-(4′-fluoro-biphenyl-4-yl)-ethylamino]-4-methyl-pentanoic acid]
6 | 6.30 to 7.00 | CC(C)C[C@H](N[C@@H](Cc1ccc([N+](=O)O)cc1)C(=O)O)C(=O)O [RA, 2-[1-Carboxy-2-(4-nitro-phenyl)-ethylamino]-4-methyl-pentanoic acid]
7 | < 6.30 | CC(C)C[C@H](N[C@@H](Cc1ccc(C(=O)NCc2cc(F)cc(F)c2)cc1)C(=O)O)C(=O)O [QD, 2-[1-Carboxy-2-[4-(3,5-difluoro-benzylcarbamoyl)phenyl]-ethylamino]-4-methyl-pentanoic acid]

same assay, conditions: Ki class; compounds tested in 5% DMSO, 12 compound concentrations, Ki=Kiapp/(1+[S]/Km); read-out: Human ACE-2 Activity

Row | pKi | Compound
8 | < 6.30 | CC(C)C[C@H](N[C@@H](Cc1ccc(-c2cc(F)cc(F)c2)o1)C(=O)O)C(=O)O [NU, (S,S)-2-{1-Carboxy-2-[5-(3,5-difluoro-phenyl)-furan-2-yl]-ethylamino}-4-methyl-pentanoic acid]
9 | > 7.00 | CC(C)C[C@H](N[C@@H](Cn1ccn(Cc2cc(F)cc(F)c2)c1=O)C(=O)O)C(=O)O [LG, 2-[1-Carboxy-2-[3-(3,5-difluoro-benzyl)-2-oxo-2,3-dihydro-imidazol-1-yl]-ethylamino]-4-methyl-pentanoic acid]
10 | < 6.30 | CC(C)C[C@H](N[C@@H](CNC(=O)c1ccc(Cl)c(Cl)c1)C(=O)O)C(=O)O [LJ, (S,S)-2-[1-Carboxy-2-(3,4-dichloro-benzoylamino)-ethylamino]-4-methyl-pentanoic acid]
11 | 6.30 to 7.00 | CC(C)C[C@H](N[C@@H](Cc1ccc(-c2cc(Cl)cc(Cl)c2)o1)C(=O)O)C(=O)O [NS, (S,S)-2-{1-Carboxy-2-[5-(3,5-dichlorophenyl)-furan-2-yl]-ethylamino}-4-methyl-pentanoic acid]
12 | > 7.00 | CC(C)CC(N[C@@H](Cc1cncn1Cc1cccc(Cl)c1Cl)C(=O)O)C(=O)O (single isomer, unassigned) [IY, 2-[1-Carboxy-2-[3-(2.3-dichloro-benzyl)-3H-imidazol-4-yl]-ethylamino]4-methyl-pentanoic acid]
13 | < 6.30 | CC(C)CC(N[C@@H](Cc1cncn1Cc1cccc(F)c1F)C(=O)O)C(=O)O (single isomer, unassigned) [IV, 2-[1-Carboxy-2-[3-(2,3-difluoro-benzyl)-3H-imidazol-4-yl]-ethylamino]4-methyl-pentanoic acid]
14 | < 6.30 | CC(C)C[C@H](N[C@@H](Cc1cncn1Cc1cc(Cl)cc(Cl)c1)C(=O)OCc1ccccc1)C(=O)O [LB, (S,S) 2-{1-Benzyloxycarbonyl-2-[3-(3,5-dichloro-benzyl)-3H-imidazol-4-yl]-ethylamino}-4-methyl-pentanoic acid]
15 | < 6.30 | Cc1cc(C)cc(COc2cccc(C[C@H](N[C@@H](CC(C)C)C(=O)O)C(=O)O)c2)c1 [OA, 2-[1-Carboxy-2-[3-(3,5-dimethyl-benzyloxy)-phenyl]-ethylamino]-4-methyl-pentanoic acid]
16 | 6.30 to 7.00 | Cc1ccc2nc(NC(=O)C[C@H](N[C@@H](CC(C)C)C(=O)O)C(=O)O)sc2c1 [NW, 2-[1-Carboxy-2-(6-methyl-benzothiazol-2-ylcarbamoyl)-ethylamino]-4-methyl-pentanoic acid]
17 | < 6.30 | CC(C)C[C@H](N[C@@H](Cc1ccc(Cc2cc(Cl)cc(Cl)c2)cc1)C(=O)O)C(=O)O [OF, (S,S)-2-{1-Carboxy-2-[4-(3,5-dichloro-benzyl)-phenyl]-ethylamino}-4-methyl-pentanoic acid]
18 | < 6.30 | Cc1ccc(Cn2cncc2C[C@H](NC(CC(C)C)C(=O)O)C(=O)O)cc1C (single isomer, unassigned) [HL, 2-[1-Carboxy-2-[3-(3,4-dimethyl-benzyl)-3H-imidazol-4-yl]-ethylamino]4-methyl-pentanoic acid]
19 | < 6.30 | CC(C)CC(N[C@@H](Cc1cncn1Cc1ccc(F)cc1)C(=O)O)C(=O)O (single isomer, unassigned) [IJ, 2-[1-Carboxy-2-[3-(4-fluoro-benzyl)-3H-imidazol-4-yl]-ethylamino]4-methyl-pentanoic acid]

Continued, compound first:

Row | Compound | pKi
20 | CC(C)CC(N[C@@H](Cc1cncn1Cc1cccc(C(F)(F)F)c1)C(=O)O)C(=O)O (single isomer, unassigned) [JA, 2-[1-Carboxy-2-[3-(3-trifluoromethyl-benzyl)-3H-imidazol-4-yl]-ethylamino]4-methyl-pentanoic acid] | < 6.30
21 | CC(C)C[C@H](N[C@@H](Cc1ccc(OCc2cccnc2)cc1)C(=O)O)C(=O)O [LX, S,S-2-{1-Carboxy-2-[4-(pyridin-3-ylmethoxy)-phenyl]-ethylamino}-4-methyl pentanoic acid] | 6.30 to 7.00
22 | CC(C)CC(N[C@@H](Cc1cncn1Cc1ccccc1-c1ccccc1)C(=O)O)C(=O)O (single isomer, unassigned) [IE] | < 6.30
23 | CCCCOC(=O)[C@H](Cc1cncn1Cc1cc(Cl)cc(Cl)c1)N[C@H](CC(C)C)C(=O)O [LE, 2-[1-Butoxycarbonyl-2-[3-(3,5-dichloro-benzyl)-3H-imidazol-4-yl]-ethylamino]4-methyl-pentanoic acid] | < 6.30
24 | CC(C)C[C@H](N[C@@H](Cn1ccn(CC2CCCCC2)c1=O)C(=O)O)C(=O)O [NL, 2-[1-Carboxy-2-(3-cyclohexylmethyl-2-oxo-2,3-dihydro-imidazol-1-yl)-ethylamino]-4-methyl-pentanoic acid] | 6.30 to 7.00
25 | CC(C)CC(N[C@@H](Cc1cncn1Cc1cc(C(F)(F)F)cc(C(F)(F)F)c1)C(=O)O)C(=O)O (single isomer, unassigned) [IG, 2-[2-[3-(3,5-Bis-trifluoromethyl-benzyl)-3H-imidazol-4-yl]-1-carboxy-ethylamino]-4-methyl-pentanoic acid] | < 6.30
26 | COC(=O)[C@@H](Cc1cccc(O)c1)N[C@@H](CC(C)C)C(=O)OCc1ccccc1 [LL, 2-[2-(3-Hydroxy-phenyl)-1-methoxycarbonyl-ethylamino]-4-methyl-pentanoic acid benzylester] | < 6.30
27 | COc1cccc(Cn2cncc2C[C@H](NC(CC(C)C)C(=O)O)C(=O)O)c1OC (single isomer, unassigned) [IP, 2-[1-Carboxy-2-[3-(2,3-dimethoxy-benzyl)-3H-imidazol-4-yl]-ethylamino)4-methyl-pentanoic acid] | < 6.30
28 | CC(C)CC(N[C@@H](Cc1cncn1Cc1ccccc1CS(=O)(=O)c1ccccc1)C(=O)O)C(=O)O (single isomer, unassigned) [IA, 2-[2-[3-(2-Benzenesulfonylmethyl-benzyl)-3H-imidazol-4-yl]-1-carboxy-ethylamino]-4-methyl-pentanoic acid] | < 6.30
29 | CCCCc1ccc(Cn2cncc2C[C@H](NC(CC(C)C)C(=O)O)C(=O)O)cc1 (single isomer, unassigned) [HJ, 2-[2-[3-(4-Butyl-benzyl)-3H-imidazol-4-yl]-1-carboxy-ethylamino]-4-methyl-pentanoic acid] | < 6.30
30 | CCCCOC(=O)[C@H](Cc1cncn1Cc1cc(Cl)cc(Cl)c1)N[C@@H](CC(C)C)C(=O)O [LD, (S,S) 2-{1-Butoxycarbonyl-2-[3-(3,5-dichloro-benzyl)-3H-imidazol-4-yl]-ethylamino}-4-methyl-pentanoic acid] | > 7.00
31 | CC(C)C[C@H](N[C@@H](Cc1ccc(OCC2CCCCC2)cc1)C(=O)O)C(=O)O [KR, S,S-2-[1-Carboxy-2-(4-cyclohexylmethoxy-phenyl)-ethylamino]-4-methyl pentanoic acid] | 6.30 to 7.00
32 | CC(C)C[C@H](N[C@@H](Cc1ccc(OCc2ccncc2)cc1)C(=O)O)C(=O)O [LV, 2-[1-Carboxy-2-[4-(pyridin4-ylmethoxy)-phenyl]-ethylamino]-4-methyl-pentanoic acid] | > 7.00
33 | CCC(CC)Cn1cncc1C[C@H](NC(CC(C)C)C(=O)O)C(=O)O (single isomer, unassigned) [JN, 2-[1-Carboxy-2-[3-(2-ethylbutyl)-3H-imidazol-4-yl]-ethylamino]-4-methyl-pentanoic acid] | < 6.30
34 | CC(C)C[C@H](N[C@@H](CCc1ccc(OCc2ccccc2)cc1)C(=O)O)C(=O)O [OQ, (S,S) 2-[3-(4-Benzyloxy-phenyl)-1-carboxy-propylamino]-4-methyl-pentanoic acid] | 6.30 to 7.00
35 | Cc1c(Cn2cncc2C[C@H](NC(CC(C)C)C(=O)O)C(=O)O)cccc1-c1ccccc1 (single isomer, unassigned) [IR, 2-[1-Carboxy-2-[3-(2-methyl-biphenyl-3-ylmethyl)-3H-imidazol-4-yl]-ethylamino)-4-methyl-pentanoic acid] | < 6.30

same assay, conditions: Ki class; compounds tested in 5% DMSO, 12 concentrations; read-out: Human ACE-2 Activity

Row | pKi | Compound
36 | < 6.30 | CC(C)CC(N[C@@H](Cc1csc(N)n1)C(=O)O)C(=O)O (single isomer, unassigned) [GU, 2-[2-(2-Amino-thiazol-4-yl)1-carboxy-ethylamino]-4-methyl-pentanoic acid]

same assay, conditions: Table 3, very good ACE-2 inhibiting compounds; species not given; read-out: ACE-2 Activity, Ki

Row | pKi | Compound
37 | 7.00 to 7.30 | CC(C)C[C@H](N[C@@H](Cn1ccn(Cc2cc(F)cc(F)c2)c1=O)C(=O)O)C(=O)O [LG, 2-[1-Carboxy-2-[3-(3,5-difluoro-benzyl)-2-oxo-2,3-dihydro-imidazol-1-yl]-ethylamino]-4-methyl-pentanoic acid]
38 | > 7.30 | CC(C)C[C@H](N[C@@H](Cc1ccc(-c2ccc(F)cc2)cc1)C(=O)O)C(=O)O [OY, (S,S)-[1-Carboxy-2-(4′-fluoro-biphenyl-4-yl)-ethylamino]-4-methyl-pentanoic acid]
39 | 7.00 to 7.30 | CC(C)C[C@H](N[C@@H](Cc1ccc(OCc2ccncc2)cc1)C(=O)O)C(=O)O [LV, 2-[1-Carboxy-2-[4-(pyridin4-ylmethoxy)-phenyl]-ethylamino]-4-methyl-pentanoic acid]
40 | > 7.30 | Cc1ccc2nc(NC(=O)C[C@H](N[C@@H](CC(C)C)C(=O)O)C(=O)O)sc2c1 [NW, 2-[1-Carboxy-2-(6-methyl-benzothiazol-2-ylcarbamoyl)-ethylamino]-4-methyl-pentanoic acid]
